How the values were obtained:
LRRK2 wild type enzyme = LRRK2 wild type enzyme (Homo sapiens, UniProt Q5S007); experiment: LRRK2 biochemical assay (LanthaScreen TR-FRET, LRRKtide substrate); conditions: LRRK2 inhibition; 3 nM LRRK2, 400 nM LRRKtide, 25 μM ATP, 120 min, 23° C.
Protocol: 10 mM compound solution was prepared in DMSO. An 11-point, 3-fold dilution was performed, with highest concentration at 10 μM. A 10 mM compound DMSO solution was added to Labcyte LDV plate and the compound concentration of source plate was 10 mM. The 1 st compound concentration of Inter plate (Labcyte 384 well PP plate) was 4.938×10^−1 mM which was prepared by transferring 1.5 μL of 10 mM compound from source plate to 28.9 μL DMSO. The 2nd compound concentration of Inter plate was 1.829×10^−2 mM which was prepared by transferring 60 nL of 10 mM compound from source plate to 32.7 μL DMSO. The 3rd compound concentration of Inter plate was 6.774×10^−4 mM which was prepared by transferring 2.5 nL of 10 mM compound from source plate to 36.9 μL DMSO. 100 nL of reference compound was dispensed in column 1 for low control wells and 100 nL of DMSO in column 24 for high control wells. Compounds were dispensed to column 2 to 23 of assay plate and backfilled with DMSO to a total volume of 100 nL.
A 2×LRRK2 enzyme solution (final concentration 3 nM) was prepared in assay buffer (Tris-HCl pH8.0: 50 mM, MgCl2: 5 mM, EDTA: 1 mM, Brij-35: 0.01%, 2 mM DTT). A 2× substrate solution was prepared: LRRK2 tide substrate (final concentration 400 nM) and ATP (final concentration 25 μM) in assay buffer. 5 μL 2×LRRK2 enzyme solution was dispensed to each well in assay plate by Multidrop. Assay plate was spun at 1,000 rpm for 1 min and incubated for 15 min at 23° C. 5 μL 2×ATP/LRRKtide solution was dispensed to each well in assay plate by Multidrop. Assay plate was spun at 1,000 rpm for 1 min and incubated for 120 min at 23° C.
A 2× detection solution was prepared: Tb-pERM (pLRRKtide) antibody (final concentration 0.25 nM) and EDTA (final concentration 10 mM) in TR-FRET dilution buffer. 10 μL 2× detection solution was dispensed to each well in assay plate to stop kinase reaction by Multidrop. Assay plate was spun at 1,000 rpm for 1 min and incubate for 30 min at 23° C. Assay plate was then read on Envision configured for LanthaScreen® TR-FRET.

[1] = molecular target: T1, phosphorylation at Ser935 on wild type LRRK2 overexpressed in recombinant HEK-293T cells (Homo sapiens, UniProt Q5S007); experiment: pS935 LRRK2 Cell Assay (HTRF); format: cell-based; conditions: LRRK2 inhibition; pS935 LRRK2 in transfected HEK293T cells, 2 hours compound incubation
T1 construct: host or cells: HEK293T, transient transfection
From the text: The following protocol describes an in-vitro method for measuring phosphorylation at Ser935 on wild type LRRK2 overexpressed in recombinant HEK-293T cells. The method is based on HTRF technology, which combines Fluorescence Resonance Energy Transfer (FRET) with Time-Resolved measurement (TR). Phospho-LRRK2 (Ser935) is detected in a sandwich assay format using two different specific antibodies, one labelled with Eu^3+-Cryptate (donor) and the second with d2 (acceptor). When the fluorophores are in close proximity, excitation of the donor with a light source (flash lamp) stimulates FRET to the acceptor, which in turn fluoresces at a specific wavelength (665 nm). The fluorescence emission at 615 nm from the donor is also measured to allow ratiometric reduction of data. The specific signal is proportional to phospho-LRRK2 (Ser935).
Plasmid transient transfection: DMEM medium, FBS, DPBS, Trans-IT, OPTI-MEM reagents were allowed to warm to room temperature. HEK293T cells were cultured in DMEM+10% FBS complete medium in T150 flasks till around 80% confluency before transfection. Then cells were washed with 10 mL PBS and detached with 3 mL 0.25% typinsin. 30×10E6 HEK293T cells were seeded in DMEM+10% FBS complete medium to a 15 cm dish.
DNA, TransIT-LT1, OPTI-MEM complex were prepared: […] OPTI-MEM was added to a 15 mL cone tube, then […] plasmid was added to OPTI-MEM and mixed, followed by addition of 60 L TransIT-LT1 to the plasmid OPTI-MEM mixture and mixing. The resulting mixture was incubated for 15 minutes.
The above plasmid, DNA and OPTI-MEM mixture was added dropwise to the 15 cm dish, ensuring the drops were evenly distributed. The culture dish was gently rocked back and forth and from left to right to evenly distribute the complex. The transfected dish was incubated for 24 hours at 37° C., and 5% CO2.
Transfected HEK293T was collected in the 15 cm dish. Media was aspirated from tissue culture dish, and washed by dispensing 10 mL 1×DPBS into 15 cm dish. 1×DPBS was aspirated and 3 mL trypsin was dispensed to 15 cm dish. The dish was incubated with trypsin at room temperature for 3 min until the cells were detached. 10 mL of DMEM+10% FBS medium were added to 15 cm dish and triturated to ensure homogenous cell suspensions.
Homogenous cell suspensions were transferred to a 50 mL tube, and centrifuged for 5 minutes at 1,000 rmp/min. The supernatant was aspirated and resuspended with 20 mL complete medium. 1 mL of cell suspension was transferred for cell counting. The cell suspension was diluted to 2×10E5 cells/ml. 50 L cell suspensions were added to a 384-well plate. The plate was quick spun at 800 rpm for 1 minute, then incubate overnight at 37° C., 5% CO2.
Compound dispensing: compound was diluted (10 mM DMSO stock solution) and added to assay plate (top concentration: 10 μM, 3 fold serial dilution, 9 doses) with duplicates by Tecan liquid handler. The DMSO concentration of each well was normalized to 0.2%. Plates were quick spun at 1,000 rpm for 1 minute. Plates were incubated at 37° C., 5% CO2 for 2 hours.
1× lysis buffer solution supplemented with blocking reagent was prepared (e.g. 1 mL lysis buffer 4×+3 mL water+40 L stock blocking reagent 100×). Antibodies working solution was prepared by diluting 40-fold d2 and Cryptate antibodies with detection buffer (e.g. 1520 L detection buffer+40 L d2-antibody stock solution+[…] Cryptate-antibody stock solution).
After 2 hours incubation, cell plates were taken out from the incubator. Medium was removed by plate washer, then 16 µL of supplemented lysis buffer was added 1× to each well and incubated for 30 minutes at room temperature under shaking (800 rpm/min). 4 µL of antibodies working solution was added to each well, covered with a top seal and incubated overnight in 23° C. incubator.
HTRF signal was read (665 nm and 615 nm) on Wallac 2104 EnVision® multilabel reader. Data were analyzed by XL fit software.

Chain of LRRK2 wild type enzyme (Q5S007 whole entry): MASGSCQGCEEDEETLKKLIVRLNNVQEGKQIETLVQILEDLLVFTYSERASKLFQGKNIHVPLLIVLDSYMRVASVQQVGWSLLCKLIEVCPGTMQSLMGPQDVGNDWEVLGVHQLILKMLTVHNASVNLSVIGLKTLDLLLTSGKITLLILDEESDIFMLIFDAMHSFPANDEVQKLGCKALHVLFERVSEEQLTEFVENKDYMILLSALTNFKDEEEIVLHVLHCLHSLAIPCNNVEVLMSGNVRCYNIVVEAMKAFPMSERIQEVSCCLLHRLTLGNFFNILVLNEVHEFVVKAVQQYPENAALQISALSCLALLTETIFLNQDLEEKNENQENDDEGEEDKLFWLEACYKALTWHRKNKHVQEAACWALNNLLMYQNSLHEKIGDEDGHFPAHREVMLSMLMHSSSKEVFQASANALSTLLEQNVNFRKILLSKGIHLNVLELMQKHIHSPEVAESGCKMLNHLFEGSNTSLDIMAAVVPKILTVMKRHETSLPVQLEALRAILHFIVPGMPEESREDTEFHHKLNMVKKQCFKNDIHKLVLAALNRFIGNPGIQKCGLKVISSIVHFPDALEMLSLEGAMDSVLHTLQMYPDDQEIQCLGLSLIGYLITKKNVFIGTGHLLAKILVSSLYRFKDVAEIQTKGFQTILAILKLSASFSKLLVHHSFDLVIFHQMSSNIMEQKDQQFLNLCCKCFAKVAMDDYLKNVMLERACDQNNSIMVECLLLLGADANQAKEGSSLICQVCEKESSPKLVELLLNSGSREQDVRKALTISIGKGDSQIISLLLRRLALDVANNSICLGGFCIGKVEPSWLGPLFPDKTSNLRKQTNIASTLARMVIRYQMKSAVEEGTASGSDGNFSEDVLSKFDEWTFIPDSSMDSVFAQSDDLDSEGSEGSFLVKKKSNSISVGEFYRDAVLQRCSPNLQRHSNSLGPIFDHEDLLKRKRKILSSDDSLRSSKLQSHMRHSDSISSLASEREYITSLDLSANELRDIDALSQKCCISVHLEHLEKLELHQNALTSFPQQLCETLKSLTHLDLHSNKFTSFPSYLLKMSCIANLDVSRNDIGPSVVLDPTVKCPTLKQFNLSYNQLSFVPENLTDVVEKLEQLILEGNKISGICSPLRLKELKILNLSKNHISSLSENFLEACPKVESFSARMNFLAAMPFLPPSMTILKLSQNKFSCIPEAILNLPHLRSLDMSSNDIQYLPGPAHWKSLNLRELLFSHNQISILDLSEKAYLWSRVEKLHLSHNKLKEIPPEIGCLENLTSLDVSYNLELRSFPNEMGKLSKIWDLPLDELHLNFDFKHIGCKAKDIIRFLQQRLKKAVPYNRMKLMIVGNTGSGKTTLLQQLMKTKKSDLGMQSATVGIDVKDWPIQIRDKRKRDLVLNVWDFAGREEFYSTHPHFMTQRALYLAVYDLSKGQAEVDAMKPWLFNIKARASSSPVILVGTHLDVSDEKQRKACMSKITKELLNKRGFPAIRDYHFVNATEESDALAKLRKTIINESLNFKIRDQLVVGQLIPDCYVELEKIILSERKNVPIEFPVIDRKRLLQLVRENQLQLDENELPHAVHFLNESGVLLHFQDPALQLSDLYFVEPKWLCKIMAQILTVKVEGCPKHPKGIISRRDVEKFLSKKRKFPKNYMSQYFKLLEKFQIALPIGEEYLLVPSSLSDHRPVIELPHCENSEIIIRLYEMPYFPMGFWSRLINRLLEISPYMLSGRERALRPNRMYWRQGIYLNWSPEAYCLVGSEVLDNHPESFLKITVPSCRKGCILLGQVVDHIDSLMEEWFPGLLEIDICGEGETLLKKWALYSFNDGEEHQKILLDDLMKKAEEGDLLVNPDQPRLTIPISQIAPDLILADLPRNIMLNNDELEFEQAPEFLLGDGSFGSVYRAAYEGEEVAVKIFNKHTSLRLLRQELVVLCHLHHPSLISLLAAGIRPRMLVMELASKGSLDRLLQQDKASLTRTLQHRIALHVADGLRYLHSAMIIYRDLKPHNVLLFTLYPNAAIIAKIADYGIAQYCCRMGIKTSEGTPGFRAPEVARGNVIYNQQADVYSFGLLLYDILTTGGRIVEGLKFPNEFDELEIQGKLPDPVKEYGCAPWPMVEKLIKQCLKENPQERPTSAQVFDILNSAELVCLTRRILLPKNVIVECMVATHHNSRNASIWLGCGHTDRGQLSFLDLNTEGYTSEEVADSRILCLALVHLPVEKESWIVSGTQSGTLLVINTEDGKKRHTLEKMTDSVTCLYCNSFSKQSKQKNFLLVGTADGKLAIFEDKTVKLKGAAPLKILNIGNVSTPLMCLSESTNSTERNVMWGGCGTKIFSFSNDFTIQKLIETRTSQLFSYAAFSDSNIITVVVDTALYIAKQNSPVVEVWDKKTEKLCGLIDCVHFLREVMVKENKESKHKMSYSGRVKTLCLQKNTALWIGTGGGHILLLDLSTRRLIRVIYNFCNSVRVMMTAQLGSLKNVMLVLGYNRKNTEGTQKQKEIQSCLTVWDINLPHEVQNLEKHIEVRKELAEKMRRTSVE
T1 sequence (Q5S007 whole entry): as above

SMILES | IC50 (LRRK2 wild type enzyme) [nM] | IC50 [1] [nM]
C[C@@H]1C[C@H](n2c(Cc3cn([C@H]4C[C@@H](S(C)(=O)=O)C4)nn3)nc3cnc4ccc(C#N)cc4c32)CCO1 [Compound 21] | 1.41 | 1770
C[C@@H]1C[C@H](n2c(Cc3n[nH]c(=O)o3)nc3cnc4ccc(C#N)cc4c32)CCO1 [Compound 7, 1-[(2R,4R)-2-methyloxan-4-yl]-2-[(5-oxo-4,5-dihydro-1,3,4-oxadiazol-2-yl)methyl]-1H-imidazo[4,5-c]quinoline-8-carbonitrile] | 1.49 | 466
C[C@@H]1C[C@H](n2c(Cc3ccc(NS(C)(=O)=O)nc3)nc3cnc4ccc(C#N)cc4c32)CCO1 [Compound 6, N-(5-{[8-cyano-1-(2-methyloxan-4-yl)-1H-imidazo[4,5-c]quinolin-2-yl]methyl}pyridin-2-yl)methanesulfonamide] | 3.94 | 4380
C[C@@H]1C[C@H](n2c(Cc3noc(N4CCC(O)C4)n3)nc3cnc4ccc(C#N)cc4c32)CCO1 (mixture of isomers) [Compound 12, 2-({5-[(3RS)-3-hydroxypyrrolidin-1-yl]-1,2,4-oxadiazol-3-yl}methyl)-1-[(2R,4R)-2-methyloxan-4-yl]-1H-imidazo[4,5-c]quinoline-8-carbonitrile] | 1.36 | 811
C[C@@H]1C[C@H](n2c(Cc3noc(N4CC(O)C4)n3)nc3cnc4ccc(Cl)cc4c32)CCO1 [Compound 3, 1-[3-({8-chloro-1-[(2R,4R)-2-methyloxan-4-yl]-1H-imidazo[4,5-c]quinolin-2-yl}methyl)-1,2,4-oxadiazol-5-yl]azetidin-3-ol] | 0.798 | 61.5
C[C@@H]1C[C@H](n2c(Cc3noc(C4(S(C)(=O)=O)CC4)n3)nc3cnc4ccc(Cl)cc4c32)CCO1 [Compound 10, 3-({8-chloro-1-[(2R,4R)-2-methyloxan-4-yl]-1H-imidazo[4,5-c]quinolin-2-yl}methyl)-5-(1-methanesulfonylcyclopropyl)-1,2,4-oxadiazole] | 0.299 | 10.3
C[C@@H]1C[C@H](n2c(Cc3ccc(S(C)(=O)=O)cn3)nc3cnc4ccc(C#N)cc4c32)CCO1 [Compound 22, 2-[(5-methanesulfonylpyridin-2-yl)methyl]-1-[(2R,4R)-2-methyloxan-4-yl]-1H-imidazo[4,5-c]quinoline-8-carbonitrile] | 0.579 | 
C[C@@H]1C[C@H](n2c(Cc3noc(N4CC(O)C4)n3)nc3cnc4ccc(C#N)cc4c32)CCO1 [Compound 1, 2-{[5-(3-hydroxyazetidin-1-yl)-1,2,4-oxadiazol-3-yl]methyl}-1-[(2R,4R)-2-methyloxan-4-yl]-1H-imidazo[4,5-c]quinoline-8-carbonitrile] | 0.976 | 664
C[C@@H]1C[C@H](n2c(Cn3ccc(NS(C)(=O)=O)n3)nc3cnc4ccc(C#N)cc4c32)CCO1 [Compound 4, N-(1-{[8-cyano-1-(2-methyloxan-4-yl)-1H-imidazo[4,5-c]quinolin-2-yl]methyl}-1H-pyrazol-3-yl)methanesulfonamide] | 0.888 | 458
C[C@@H]1C[C@H](n2c(Cc3noc(=O)[nH]3)nc3cnc4ccc(Cl)cc4c32)CCO1 [Compound 15, 3-({8-chloro-1-[(2R,4R)-2-methyloxan-4-yl]-1H-imidazo[4,5-c]quinolin-2-yl}methyl)-4,5-dihydro-1,2,4-oxadiazol-5-one] | 3.23 | > 10000
C[C@@H]1C[C@H](n2c(Cc3cn(C4CN(S(C)(=O)=O)C4)nn3)nc3cnc4ccc(C#N)cc4c32)CCO1 [Compound 5, 2-{[1-(1-methanesulfonylazetidin-3-yl)-1H-1,2,3-triazol-4-yl]methyl}-1-[(2R,4R)-2-methyloxan-4-yl]-1H-imidazo[4,5-c]quinoline-8-carbonitrile] | 0.635 | 324
C[C@@H]1C[C@H](n2c(Cn3ccc(=O)c(C(=O)O)c3)nc3cnc4ccc(C#N)cc4c32)CCO1 [Compound 17, 1-({8-cyano-1-[(2R,4R)-2-methyloxan-4-yl]-1H-imidazo[4,5-c]quinolin-2-yl}methyl)-4-oxo-1,4-dihydropyridine-3-carboxylic acid] | 2.88 | 2950
C[C@@H]1C[C@H](n2c(Cc3cnn(C4COC4)c3)nc3cnc4ccc(C#N)cc4c32)CCO1 [Compound 8, 1-[(2R,4R)-2-methyloxan-4-yl]-2-{[1-(oxetan-3-yl)-1H-pyrazol-4-yl]methyl}-1H-imidazo[4,5-c]quinoline-8-carbonitrile] | 6.47 | 618
C[C@@H]1C[C@H](n2c(Cn3cccc(C(=O)O)c3=O)nc3cnc4ccc(C#N)cc4c32)CCO1 [Compound 2, 1-({8-cyano-1-[(2R,4R)-2-methyloxan-4-yl]-1H-imidazo[4,5-c]quinolin-2-yl}methyl)-2-oxo-1,2-dihydropyridine-3-carboxylic acid] | 106 | 
C[C@@H]1CC(n2c(Cn3nccc3NS(C)(=O)=O)nc3cnc4ccc(C#N)cc4c32)CCO1 (stereo in doubt) [Compound 16, N-(1-{[8-cyano-1-(2-methyloxan-4-yl)-1H-imidazo[4,5-c]quinolin-2-yl]methyl}-1H-pyrazol-5-yl)methanesulfonamide] | 671 | 
C[C@@H]1C[C@H](n2c(Cc3cc(CCS(C)(=O)=O)on3)nc3cnc4ccc(C#N)cc4c32)CCO1 [Compound 20, 2-{[5-(2-methanesulfonylethyl)-1,2-oxazol-3-yl]methyl}-1-[(2R,4R)-2-methyloxan-4-yl]-1H-imidazo[4,5-c]quinoline-8-carbonitrile] | 0.596 | 

Reference: US20250066356A1, “LRRK2 INHIBITORS” (INTERLINE THERAPEUTICS, INC., priority 2022, published 2025)
